Where a name gives a salt, the structure may show the parent alone. Marks after values point to notes of the source that are not given here.
Experiments:
Bel-7402 = assay: cells; format: cell-based, human; conditions: Homo sapiens
Method: (§1) Cells in the growth log phase were seeded in 96-well plate (200 ul/well) with density 8×10^3/well for 24 hours, then the drugs were added. The concentration of Doxorubicin-tripeptide conjugate was 0.005 mg/ml, 0.01 mg/ml, 0.02 mg/ml, 0.04 mg/ml, 0.06 mg/ml in turn, while Doxorubicin followed by 0.005 mg/ml, 0.01 mg/ml, 0.02 mg/ml, 0.04 mg/ml, 0.06 mg/ml with a same dosing volume 100 μl. Each concentration group included five equal wells and was provided with a control well of medium alone as a negative control. Add 20 μl of MTT Reagent ( 5 mg/ml, Sigma) to each well, including controls and continue to be incubated at 37°C for 4 hours. Remove the supernatant, drop plus DMSO (200 μl/well) and measure the OD value in each well, including the blanks, at 490 nm by a Multi-Mode Reader (BioTek, Synergy 2, USA). To calculate the inhibitory rate and the half maximal inhibitory concentration (IC50) according to the formula: Inhibitory rate =(1-( the dosing group OD/the control group OD )) × 100%, IC50 = lg^-1 (Xm-i (ΣP-0.5)) (Xm: the logarithm of maximum concentration, I: the logarithm of maximum dose/ adjacent dose, P: the sum of each group inhibitory rate, Pm: the maximum inhibitory rate, Pn: the minimum inhibitory rate ).

Caco2 = assay: cells; format: cell-based, human; conditions: Homo sapiens, Caco-2
Method: as §1

HepG2 [1] = assay: cells; format: cell-based, human; conditions: Homo sapiens, HepG2, given as fraction, read-out: Inhibitory effect by MTT
Method: as §1

HepG2 [2] = assay: Drug concentration in tumor cells by HPLC, HepG2; format: cell-based, human; conditions: incubated 2 hours
Method: When the density of HCC cells reached to 3 × 10^6/ml, they were trypsinized and centrifuge (4°C, 800rpm, 5min), then discarded the supernatant, dropping medium 3 ml and evenly mixed. Cell suspension was divided into three groups (control group, Doxorubicin-tripeptide conjugate group and Doxorubicin group). The drug concentration was 0.01 mg/ml for cultured 2 hours avoiding light. Then the cells obtained by centrifugation were proceeded by the following steps: washed 3 times with 1 ml normal saline, added 0.5 ml ultra pure water (Millipore), broken by ultrasonic wave, drooped in acetonitrile (Tianjin Concord Technology Co. Ltd, China) 0.5 ml, mixed, ultrasonic oscillation for 10 mins, centrifuge (1200 rpm, 15 min), take the supernatant, filtration with filter membrane, take 20 μl for HPLC analysis (Agilent 1100 HPLC system, USA).
Chromatographic conditions were as follows: chromatographic column: DIONEX Acclaim 120 C18 (2.1 × 250 mm, 5 μm 120A), Mobile phase: Acetonitrile-0.2%NaH2PO4 aqueous solution (35: 65), Velocity: 0.35 ml/min, column temperature: 30°C, DAD, 254 nm, sample size: 20 μl. […] According to the chromatographic condition, the retention time (tR), peak position time, chromatographic behavior, resolution (R), the minimum detectable concentration and the intracellular drug concentration of these two drugs were detected in turn.

[3] = Blood routine, Bel-7402 HCC mice; format: in vivo, nude mice; conditions: high dose, after treatment
[4] = HCC mice, both dose groups
Method: After the HCC mice model was established, the nude mice were randomly assigned to three groups: Group A (control group: administration with normal saline 0.2 ml every time), group B (administration with Doxorubicin-tripeptide conjugate) and group C (administration with Doxorubicin). […] Treatment was conducted every 3 weeks for 5 weeks. Pay close attention to the general condition of the mice and their subcutaneous tumor and draw survivorship curve. The mice were weighed every 3 days and tumor volume was measured with a digital caliper using the formula: volume = (1/6).π. length × width × height. At the end of the experiment, tumor weight and volume was measured to obtained the tumor inhibitory rate and actual volume, which were calculated by the follow formula respectively: tumor inhibitory rate = (The average tumor weight of control group-experimental group)/control group × 100 %. volume = (1/6).π. length × width × height.
After the course of administration, mice were sacrificed, then the blood was collected to detect relevant indexes including quantitative serum protein, blood routine, myocardial enzymes (CK, CK-MB, LDH, AST), GSH-PX, MDA and SOD, the bone marrow taken to make bone marrow smear. What's more, the tumor, liver, jejunum and heart tissue of mice were dissected firstly for Small Animal Imaging (KODAK IS in-vivo FX, Kodak), and secondly were placed in the 10% Formaldehyde solution to prepare paraffin section, HE staining for histological examination. […] The tests of CK, CK-MB, LDH, AST, GSH-PX, MDA and SOD were completed in accordance with instructions strictly (Jiancheng Bioengineering Institute, Nanjing, China).

## COc1cccc2c1C(=O)c1c(O)c3c(c(O)c1C2=O)C[C@@](O)(C(=O)CO)C[C@@H]3O[C@H]1C[C@H](N)[C@H](O)[C@H](C)O1 [Doxorubicin, Doxorubicin hydrochloride]
Bel-7402; Bel-7402, MTT, read-out: IC50
  IC50: 13.8 µg/mL
Bel-7402; Bel-7402, drug 0.005 mg/ml, given as fraction, read-out: Inhibitory effect by MTT
  inhibition at 5 µg/mL: 38.8%
Bel-7402; Bel-7402, drug 0.01 mg/ml, given as fraction, read-out: Inhibitory effect by MTT
  inhibition at 10 µg/mL: 49.1%
Bel-7402; Bel-7402, drug 0.02 mg/ml, given as fraction, read-out: Inhibitory effect by MTT
  inhibition at 20 µg/mL: 61.2%
Bel-7402; Bel-7402, drug 0.04 mg/ml, given as fraction, read-out: Inhibitory effect by MTT
  inhibition at 40 µg/mL: 70%
Bel-7402; Bel-7402, drug 0.08 mg/ml, given as fraction, read-out: Inhibitory effect by MTT
  inhibition at 80 µg/mL: 79.8%
Caco2; Caco2, MTT, read-out: IC50
  IC50: 15.4 µg/mL
Caco2; Caco2, drug 0.005 mg/ml, given as fraction, read-out: Inhibitory effect by MTT
  inhibition at 5 µg/mL: 34.6%
Caco2; Caco2, drug 0.01 mg/ml, given as fraction, read-out: Inhibitory effect by MTT
  inhibition at 10 µg/mL: 50%
Caco2; Caco2, drug 0.02 mg/ml, given as fraction, read-out: Inhibitory effect by MTT
  inhibition at 20 µg/mL: 57.9%
Caco2; Caco2, drug 0.04 mg/ml, given as fraction, read-out: Inhibitory effect by MTT
  inhibition at 40 µg/mL: 62.3%
Caco2; Caco2, drug 0.08 mg/ml, given as fraction, read-out: Inhibitory effect by MTT
  inhibition at 80 µg/mL: 78.9%
HepG2 [1]; drug 0.005 mg/ml
  inhibition at 5 µg/mL: 34.6%
HepG2 [1]; drug 0.01 mg/ml
  inhibition at 10 µg/mL: 42.2%
HepG2 [1]; drug 0.02 mg/ml
  inhibition at 20 µg/mL: 57.3%
HepG2 [1]; drug 0.04 mg/ml
  inhibition at 40 µg/mL: 66.6%
HepG2 [1]; drug 0.08 mg/ml
  inhibition at 80 µg/mL: 87.9%
HepG2 [2]
  drug concentration in tumor cells: 2320 ± 30 ng/mL
[3]
  PLT: 81.33 ± 27.50^a ×10^9/l
  RBC: 6.90 ± 2.32 ×10^12/l
  WBC: 3.66 ± 2.58^a ×10^9/l
[4]
  change of mice weight during treatment: the most significant
